Experimental data from ChEMBL document CHEMBL4813973, “Discovery of novel N-benzylbenzamide derivatives as tubulin polymerization inhibitors with potent antitumor activities” (Eur J Med Chem, 2021).
Values after ≈ are worked out from the molar mass of the structure shown. Active and inactive are the calls of the source. No cut-off for these calls is given here.

How the values were obtained:
A-431 [1] = assay: Cell cycle arrest in human A-431 cells assessed as downregulation of p-histone H3 expression by Western blot analysis; assay type: functional, cell-based; settings: dose 7.5-30 nM
A-431 [2] = assay: Induction of cell cycle arrest in human A-431 cells assessed as accumulation at S phase at 7.5 nM after 48 hrs by propidium iodide staining based flow cytometry (reference value: 46.57%); assay type: functional
[3] = Resistant index, ratio of IC50 for ADR-resistant human Bel-7402 cells to IC50 for human Bel-7402 cells; assay type: functional
[4] = Aqueous solubility of the compound in phosphate buffer at pH 7.4 by HPLC-UV analysis; assay type: physicochemical
K562 = assay: cells; settings: Homo sapiens, K562, 72 h
Description: Antiproliferative activity against human K562 cells assessed as reduction in cell viability incubated for 72 hrs by MTT assay

Bel-7402 [5] = assay: Antiproliferative activity against ADR-resistant human Bel-7402 cells assessed as reduction in cell viability incubated for 72 hrs by MTT assay; assay type: functional, cell-based; settings: Homo sapiens, Bel-7402, 72 h; read-out: IC50
A-431 [6] = assay: Cell cycle arrest in human A-431 cells assessed as downregulation of CyclinB1 expression by Western blot analysis; assay type: functional, cell-based; settings: dose 7.5-30 nM
H22 [7] = assay: Antivascular activity against […] xenografted in ICR mouse assessed as reduction in tumor microvessel density at 20 mg/kg/day, iv administered for 21 days by immunohistochemical staining based analysis; assay type: functional, organism-based; settings: time 21.0 day
A-431 [8] = assay: Antiproliferative activity against human A-431 cells assessed as reduction in cell viability incubated for 72 hrs by MTT assay; assay type: functional, cell-based; settings: A-431, 72 h
[9] = Induction of mitochondria membrane potential loss in human A-431 cells assessed as red fluorescence intensity at 15 nM incubated 48 hrs by JC-1 probe based flow cytometry analysis (reference value: 93.83%); assay type: functional
A-431 [10] = assay: Induction of cell cycle arrest in human A-431 cells assessed as accumulation at G1 phase at 30 nM after 48 hrs by propidium iodide staining based flow cytometry (reference value: 41.16%); assay type: functional
A-431 [11] = assay: Anti-microtubule activity in human A-431 cells assessed as disruption of microtubule network at 7.5 to 30 nM incubated for 24 hrs by DAPI staining based confocal microscopic analysis; assay type: functional, cell-based; settings: dose 7.5-30 nM
[12] = Induction of mitochondria membrane potential loss in human A-431 cells assessed as red fluorescence intensity at 30 nM incubated for 48 hrs by JC-1 probe based flow cytometry analysis (reference value: 93.83%); assay type: functional
A-431 [13] = assay: Induction of apoptosis in human A-431 cells assessed as increase in cleaved PARP expression at 7.5 to 30 nM by western blot analysis; assay type: functional, cell-based; settings: dose 7.5-30 nM
MDA-MB-231 = assay: Antiproliferative activity against human MDA-MB-231 cells assessed as reduction in cell viability incubated for 72 hrs by MTT assay; assay type: functional, cell-based; settings: MDA-MB-231, 72 h
A-431 [14] = assay: Induction of apoptosis in human A-431 cells assessed as viable cells at 7.5 nM after 48 hrs by Annexin-V-APC/PI-staining based flow cytometric analysis (reference value: 93.37%); assay type: functional; settings: read-out: Activity
A-431 [15] = assay: Induction of cell cycle arrest in human A-431 cells assessed as accumulation at S phase at 15 nM after 48 hrs by propidium iodide staining based flow cytometry (reference value: 46.57%); assay type: functional
HUVEC [16] = assay: Antivascular activity in HUVEC assessed as inhibition of capillary like tube formation at 30 nM incubated for 6 hrs by matrigel based inverted fluorescence microscopic analysis; assay type: functional, cell-based; settings: Homo sapiens
H22 [17] = assay: Antitumor activity against […] xenografted in ICR mouse assessed as reduction of tumor weight at 20 mg/kg/day, iv for 21 days; assay type: functional; settings: 504 h, time 21 day
A-431 [18] = assay: Induction of ROS generation in human A-431 cells at 30 nM incubated for 48 hrs by DCFH-DA dye based fluorescence microscopy (reference value: 6.17%); assay type: functional
A-431 [19] = assay: Induction of cell cycle arrest in human A-431 cells assessed as accumulation at G1 phase at 15 nM after 48 hrs by propidium iodide staining based flow cytometry (reference value: 41.16%); assay type: functional
Sus scrofa = species on record: Sus scrofa; assay: Inhibition of [3H]colchicine binding to biotinylated pig brain tubulin at 1 uM incubated for 2 hrs in presence of GTP by competitive scintillation proximity assay; assay type: tissue-based
[20] = Resistant index, ratio of IC50 for VCR resistant human K562 cells to IC50 for human K562 cells; assay type: functional
A-431 [21] = assay: Induction of cell cycle arrest in human A-431 cells assessed as accumulation at S phase at 30 nM after 48 hrs by propidium iodide staining based flow cytometry (reference value: 46.57%); assay type: functional
A-431 [22] = assay: Anti-microtubule activity in human A-431 cells assessed as cell membrane rounding at 7.5 to 30 nM incubated for 24 hrs by DAPI staining based confocal microscopic analysis; assay type: functional; settings: dose 7.5-30 nM
A-431 [23] = assay: Induction of apoptosis in human A-431 cells assessed as necrotic cells at 30 nM after 48 hrs by Annexin-V-APC/PI-staining based flow cytometric analysis (reference value: 3.79%); assay type: functional
A-431 [24] = assay: Anti-microtubule activity in human A-431 cells assessed as loss of cellular structure at 7.5 to 30 nM incubated for 24 hrs by DAPI staining based confocal microscopic analysis; assay type: functional, cell-based; settings: dose 7.5-30 nM
A-431 [25] = assay: Induction of apoptosis in human A-431 cells assessed as late apoptotic cells at 15 nM after 48 hrs by Annexin-V-APC/PI-staining based flow cytometric analysis (reference value: 2.02%); assay type: functional
HUVEC [26] = assay: Antivascular activity in HUVEC assessed as inhibition of migration activity at 30 nM measured after 24 hrs by wound healing based phase contrast microscopic analysis; assay type: functional, cell-based; settings: Homo sapiens
[27] = Toxicity in ICR mouse xenografted with […] cells assessed as effect on body weight at 20 mg/kg/day, iv for 21 days; assay type: organism-based; settings: in vivo, 504 h, time 21 day
A-431 [28] = assay: Induction of apoptosis in human A-431 cells assessed as chromatin condensation at 7.5 to 30 nM incubated for 48 hrs by Hoechst33342 staining based fluorescent microscopy; assay type: functional, cell-based; settings: dose 7.5-30 nM
Bel-7402 [29] = assay: Antiproliferative activity against human Bel-7402 cells assessed as reduction in cell viability incubated for 72 hrs by MTT assay; assay type: functional, cell-based; settings: Homo sapiens, Bel-7402, 72 h; read-out: IC50
A-431 [30] = assay: Induction of apoptosis in human A-431 cells assessed as early apoptotic cells at 15 nM after 48 hrs by Annexin-V-APC/PI-staining based flow cytometric analysis (reference value: 0.82%); assay type: functional
[31] = Inhibition of pig brain tubulin polymerisation incubated for 30 mins and measured every 2 mins for 60 mins by spectrophotometric method; assay type: tissue-based, Sus scrofa
[32] = Aqueous solubility of the compound in aqueous HCl at pH 2 by HPLC-UV analysis; assay type: physicochemical

- solubility [4]: 76.6 µg/mL (≈ 213 µM)
- IC50 (K562): 19 nM
- IC50 (Bel-7402 [5]): 104 nM
- IC50 (A-431 [8]): 14 nM
- IC50 (MDA-MB-231): 27 nM
- inhibition (Sus scrofa): 56.9%
- IC50 (Bel-7402 [29]): 27 nM
- IC50 [31]: 3030 nM
- solubility [32]: 323 µg/mL (≈ 897 µM)
SMILES: COc1ccc(CNC(=O)c2cc(F)ccc2N2CCOCC2)cc1O
- Activity (A-431 [1]): Dose-Dependent Effect
- Activity (A-431 [2]): 40.02%
- Ratio IC50 [3]: 3.9
- Activity (A-431 [6]): Dose-Dependent Effect
- Activity (H22 [7]): Active
- Activity [9]: 54.43%
- Activity (A-431 [10]): 56.41%
- Activity (A-431 [11]): Active
- Activity [12]: 33.88%
- Activity (A-431 [13]): Active
- viability at 0.0075 µM (A-431 [14]): 71%
- Activity (A-431 [15]): 22.59%
- Activity (HUVEC [16]): Active
- inhibition in vivo at 20 mg/kg/day (H22 [17]): 66%
- Activity (A-431 [18]): 21.99%
- Activity (A-431 [19]): 61.16%
- Ratio IC50 [20]: 10.8
- Activity (A-431 [21]): 18.54%
- Activity (A-431 [22]): Active
- Activity (A-431 [23]): 7.35%
- Activity (A-431 [24]): Active
- Activity (A-431 [25]): 26.43%
- Activity (HUVEC [26]): Active
- Activity [27]: Non-Toxic
- Activity (A-431 [28]): Active
- Activity (A-431 [30]): 18.35%
